From ChEMBL document CHEMBL1156533 (2007)
Activity calls are given as the source filed them. The rule behind the calls is not given here.

Tests used:
[1] = Inhibition of IL13 production in transgenic BALB/c mouse TH2 cells at 50 uM after 48 hrs; type: functional
[2] = test system: TH2; experiment: Inhibition of TCR-mediated JNK1 activation in transgenic BALB/c mouse TH2 cells at 100 uM by in vitro kinase assay; type: cell-based
[3] = test system: Jurkat; experiment: Inhibition of TCR-mediated IkappaB degradation in human Jurkat cells after 30 mins by immunoblotting; type: cell-based
[4] = test system: TH1; experiment: Induction of apoptosis in transgenic TH1 cells after 48 hrs by FACS; type: functional, cell-based
[5] = species on record: Mus musculus; experiment: Antiasthmatic effect in ovalbumin-challenged BALB/c mouse assessed as decrease in IL13 level in bronchoalveolar lavage fluid at 100 ug by ELISA; type: functional, Lung
[6] = test system: Jurkat; experiment: Inhibition of TCR-mediated NF-kappaB activation in human Jurkat cells at 100 uM by EMSA; type: cell-based
[7] = Inhibition of IFN-gamma production in transgenic TH1 cells at 500 uM after 48 hrs; type: functional
[8] = test system: TH2; experiment: Inhibition of TCR-mediated ERK activation in transgenic BALB/c mouse TH2 cells at 100 uM by Western blotting; type: cell-based
[9] = Inhibition of IL13 production in transgenic BALB/c mouse TH2 cells at 100 uM after 48 hrs; type: functional
[10] = species on record: Mus musculus; experiment: Antiasthmatic effect in ovalbumin-challenged BALB/c mouse assessed as decrease in eosinophil infiltration in bronchoalveolar lavage fluid; type: functional, Lung
[11] = Inhibition of IL10 production in transgenic BALB/c mouse TH2 cells at 100 uM after 48 hrs; type: functional
[12] = species on record: Mus musculus; experiment: Antiasthmatic effect in ovalbumin-challenged BALB/c mouse assessed as decrease in eosinophil infiltration in bronchoalveolar lavage fluid at 100 ug; type: functional, Lung
[13] = test system: HEK293; experiment: Inhibition of Carma1-induced NF-kappaB activation in HEK293 cells by luciferase reporter gene assay; type: functional, cell-based; conditions: Homo sapiens
[14] = Inhibition of IL10 production in transgenic BALB/c mouse TH2 cells at 50 uM after 48 hrs; type: functional
[15] = test system: HEK293; experiment: Inhibition of PKC-theta-induced NF-kappaB activation in HEK293 cells by luciferase reporter gene assay; type: functional, cell-based; conditions: Homo sapiens
[16] = target: 3-phosphoinositide-dependent protein kinase 1 (Homo sapiens) (UniProt O15530); experiment: Inhibition of recombinant PDK1 autophosphorylation by in vitro kinase assay
3-phosphoinositide-dependent protein kinase 1 (Homo sapiens), sequence (O15530 whole entry, looked up): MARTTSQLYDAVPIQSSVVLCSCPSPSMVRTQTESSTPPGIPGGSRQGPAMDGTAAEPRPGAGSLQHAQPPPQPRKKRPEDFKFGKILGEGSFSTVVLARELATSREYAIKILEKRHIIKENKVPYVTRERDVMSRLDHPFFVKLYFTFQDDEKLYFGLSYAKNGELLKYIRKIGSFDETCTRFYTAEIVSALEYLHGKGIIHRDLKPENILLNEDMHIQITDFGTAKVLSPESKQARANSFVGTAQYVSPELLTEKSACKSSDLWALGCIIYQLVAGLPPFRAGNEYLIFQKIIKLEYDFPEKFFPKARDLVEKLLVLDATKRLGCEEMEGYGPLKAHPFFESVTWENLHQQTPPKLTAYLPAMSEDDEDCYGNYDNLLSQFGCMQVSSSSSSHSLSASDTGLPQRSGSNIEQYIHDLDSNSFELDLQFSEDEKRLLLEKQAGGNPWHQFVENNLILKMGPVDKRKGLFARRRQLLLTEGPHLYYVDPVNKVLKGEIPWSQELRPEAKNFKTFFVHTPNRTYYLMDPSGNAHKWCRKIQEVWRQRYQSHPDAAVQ

[17] = test system: Mus musculus; experiment: Antiasthmatic effect in ovalbumin-challenged transgenic TH2 cells transfected SCID mouse assessed as decrease in IL13 level in bronchoalveolar lavage fluid at 100 ug administered 4-6 hrs after challenge by ELISA; type: functional, Lung
[18] = target: 3-phosphoinositide-dependent protein kinase 1 (Homo sapiens) (UniProt O15530); experiment: Inhibition of PDK1 phosphorylation in human Jurkat cells by Western blotting
[19] = Inhibition of IL5 production in transgenic BALB/c mouse TH2 cells at 50 uM after 48 hrs; type: functional
[20] = species on record: Mus musculus; experiment: Antiasthmatic effect in ovalbumin-challenged BALB/c mouse assessed as decrease in eosinophil infiltration in bronchoalveolar lavage fluid at 6 ug; type: functional, Lung
[21] = Inhibition of IL4 production in transgenic BALB/c mouse TH2 cells at 100 uM after 48 hrs; type: functional
[22] = test system: Dendritic cell; experiment: Induction of apoptosis in LPS-stimulated BALB/c mouse bone marrow-derived dendritic cells after 48 hrs by ELISA; type: functional, cell-based
[23] = target: T-cell-specific surface glycoprotein CD28 (Homo sapiens) (UniProt P10747); experiment: Inhibition of CD28-induced NF-kappaB activation in human Jurkat cells by EMSA; type: functional, cell-based
T-cell-specific surface glycoprotein CD28 (Homo sapiens), sequence (P10747 whole entry): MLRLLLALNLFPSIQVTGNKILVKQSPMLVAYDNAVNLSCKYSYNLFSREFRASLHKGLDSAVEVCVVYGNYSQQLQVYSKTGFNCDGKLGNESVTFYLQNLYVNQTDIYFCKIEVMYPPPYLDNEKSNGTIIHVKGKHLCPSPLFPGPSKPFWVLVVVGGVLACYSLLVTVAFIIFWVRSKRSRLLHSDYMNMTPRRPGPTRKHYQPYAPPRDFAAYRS

[24] = test system: Jurkat; experiment: Induction of apoptosis in human Jurkat cells after 48 hrs by FACS; type: functional, cell-based
[25] = test system: TH2; experiment: Induction of apoptosis in transgenic BALB/c mouse TH2 cells after 48 hrs by FACS; type: functional, cell-based
[26] = test system: Mus musculus; experiment: Antiasthmatic effect in ovalbumin-challenged transgenic TH2 cells transfected SCID mouse assessed as decrease in IL5 level in bronchoalveolar lavage fluid at 100 ug administered 4-6 hrs after challenge by ELISA; type: functional, Lung
[27] = species on record: Mus musculus; experiment: Antiasthmatic effect in ovalbumin-challenged BALB/c mouse assessed as decrease in IL13 level in bronchoalveolar lavage fluid by ELISA; type: functional, Lung
[28] = species on record: Mus musculus; experiment: Antiasthmatic effect in ovalbumin-challenged BALB/c mouse assessed as decrease in perivascular eosinophil infiltration in bronchoalveolar lavage fluid; type: functional, organism-based; conditions: Lung
[29] = test system: Mus musculus; experiment: Antiasthmatic activity in ovalbumin-challenged BALB/c mouse assessed as reduction in airway hyperresponsiveness at 100 ug, intratracheally administered 4 hrs after challenge; type: functional, organism-based
[30] = species on record: Mus musculus; experiment: Antiasthmatic effect in ovalbumin-challenged BALB/c mouse assessed as decrease in eosinophil infiltration in bronchoalveolar lavage fluid at 25 ug; type: functional, Lung
[31] = species on record: Mus musculus; experiment: Antiasthmatic effect in ovalbumin-challenged BALB/c mouse assessed as decrease in IL5 level in bronchoalveolar lavage fluid by ELISA; type: functional, Lung
[32] = species on record: Mus musculus; experiment: Antiasthmatic effect in ovalbumin-challenged BALB/c mouse assessed as decrease in IL13 level in bronchoalveolar lavage fluid at 6 ug by ELISA; type: functional, Lung
[33] = Inhibition of IL10 production in transgenic BALB/c mouse TH2 cells at 10 uM after 48 hrs; type: functional
[34] = test system: TH2; experiment: Inhibition of TCR-mediated NF-kappaB activation in transgenic BALB/c mouse TH2 cells at 100 uM by EMSA; type: cell-based
[35] = test system: Jurkat; experiment: Inhibition of TCR-mediated NFAT activation in human Jurkat cells at 100 uM by Western blotting; type: cell-based
[36] = Inhibition of IL5 production in transgenic BALB/c mouse TH2 cells at 100 uM after 48 hrs; type: functional
[37] = Inhibition of IFN-gamma production in transgenic TH1 cells at 100 uM after 48 hrs; type: functional
[38] = Inhibition of IL5 production in transgenic BALB/c mouse TH2 cells at 10 uM after 48 hrs; type: functional
[39] = test system: Jurkat; experiment: Inhibition of TCR-mediated ERK activation in human Jurkat cells at 100 uM by Western blotting; type: cell-based
[40] = Inhibition of IL4 production in transgenic BALB/c mouse TH2 cells at 50 uM after 48 hrs; type: functional
[41] = test system: Mus musculus; experiment: Antiasthmatic effect in ovalbumin-challenged transgenic TH2 cells transfected SCID mouse assessed as decrease in eosinophil infiltration in bronchoalveolar lavage fluid at 100 ug administered 4-6 hrs after challenge; type: functional, Lung
[42] = species on record: Mus musculus; experiment: Antiasthmatic effect in ovalbumin-challenged BALB/c mouse assessed as decrease in IL13 level in bronchoalveolar lavage fluid at 25 ug by ELISA; type: functional, Lung
[43] = test system: HEK293; experiment: Inhibition of Bcl10-induced NF-kappaB activation in HEK293 cells by luciferase reporter gene assay; type: functional, cell-based; conditions: Homo sapiens
[44] = test system: TH2; experiment: Antiproliferative activity in transgenic BALB/c mouse TH2 cells assessed as [3H]thymidine incorporation after […]; type: functional, cell-based
[45] = Inhibition of IL13 production in transgenic BALB/c mouse TH2 cells at 10 uM after 48 hrs; type: functional
[46] = test system: Mus musculus; experiment: Antiasthmatic activity in ovalbumin-challenged BALB/c mouse assessed as reduction in airway resistance at 100 ug, intratracheally administered 4 hrs after challenge; type: functional, organism-based
[47] = species on record: Mus musculus; experiment: Antiasthmatic effect in ovalbumin-challenged BALB/c mouse assessed as decrease in IL5 level in bronchoalveolar lavage fluid at 100 ug by ELISA; type: functional, Lung
[48] = Inhibition of IFN-gamma production in transgenic TH1 cells at 50 uM after 48 hrs; type: functional
[49] = test system: Jurkat; experiment: Inhibition of TCR-mediated JNK1 activation in human Jurkat cells at 100 uM by in vitro kinase assay; type: cell-based
[50] = test system: TH2; experiment: Inhibition of TCR-mediated NFAT activation in transgenic BALB/c mouse TH2 cells at 100 uM by Western blotting; type: cell-based
[51] = Inhibition of IFN-gamma production in transgenic TH1 cells at 10 uM after 48 hrs; type: functional
[52] = Inhibition of IL4 production in transgenic BALB/c mouse TH2 cells at 10 uM after 48 hrs; type: functional
[53] = species on record: Mus musculus; experiment: Antiasthmatic effect in ovalbumin-challenged BALB/c mouse assessed as decrease in IL5 level in bronchoalveolar lavage fluid at 25 ug by ELISA; type: functional, Lung
[54] = test system: TH2; experiment: Induction of apoptosis in ovalbumin-challenged transgenic BALB/c mouse TH2 cells transfected in SCID mouse assessed as decrease in viable cell in lungs; type: functional, cell-based
[55] = test system: Jurkat; experiment: Inhibition of CD3/CD28-induced NF-kappaB activation in human Jurkat cells by EMSA; type: cell-based
[56] = species on record: Mus musculus; experiment: Antiasthmatic effect in ovalbumin-challenged BALB/c mouse assessed as decrease in IL5 level in bronchoalveolar lavage fluid at 6 ug by ELISA; type: functional, Lung
[57] = species on record: Mus musculus; experiment: Antiasthmatic effect in ovalbumin-challenged BALB/c mouse assessed as decrease in peribronchial eosinophil infiltration in bronchoalveolar lavage fluid; type: functional, organism-based; conditions: Lung
[58] = Inhibition of IL13 production in transgenic BALB/c mouse TH2 cells at 500 uM after 48 hrs; type: functional
[59] = Inhibition of IL4 production in transgenic BALB/c mouse TH2 cells at 500 uM after 48 hrs; type: functional
[60] = Inhibition of IL10 production in transgenic BALB/c mouse TH2 cells at 500 uM after 48 hrs; type: functional
[61] = Inhibition of IL5 production in transgenic BALB/c mouse TH2 cells at 500 uM after 48 hrs; type: functional

**Q.** What does the source list for `Nc1c(O)cccc1C(=O)O`?
**A.** Activity [1]: 4.3 ng/mL; Activity [2]: inactive; Activity [3]: inactive; Activity [4]: Active; Activity [5]: 88 pg/mL; Activity [6]: Active; Activity [7]: 1.7 ng/mL; Activity [8]: inactive; Activity [9]: 1.7 ng/mL; Activity [10]: 155000; Activity [11]: 2.37 ng/mL; Activity [12]: 84000; Activity [13]: inactive; Activity [14]: 4.88 ng/mL; Activity [15]: inactive; Activity [16]: Dose-dependent effect; Activity [17]: <10 pg/mL; Activity [18]: Active; Activity [19]: 1.15 ng/mL; Activity [20]: 190000; Activity [21]: 2 ng/mL; Activity [22]: inactive; Activity [23]: Active; Activity [24]: Active; Activity [25]: Active; Activity [26]: <10 pg/mL; Activity [27]: 66 pg/mL; Activity [28]: Active; Activity [29]: Active; Activity [30]: 58000; Activity [31]: 141 pg/mL; Activity [32]: 147 pg/mL; Activity [33]: 7.77 ng/mL; Activity [34]: Active; Activity [35]: inactive; Activity [36]: <0.1 ng/mL; Activity [37]: 1.8 ng/mL; Activity [38]: 3.24 ng/mL; Activity [39]: inactive; Activity [40]: 6.7 ng/mL; Activity [41]: 11000; Activity [42]: 91 pg/mL; Activity [43]: inactive; Activity [44]: Active; Activity [45]: 14.9 ng/mL; Activity [46]: Active; Activity [47]: 153 pg/mL; Activity [48]: 1 ng/mL; Activity [49]: inactive; Activity [50]: inactive; Activity [51]: 29.7 ng/mL; Activity [52]: 11.5 ng/mL; Activity [53]: 144 pg/mL; Activity [54]: Active; Activity [55]: Active; Activity [56]: 219 pg/mL; Activity [57]: Active

**Q.** Which Activity [10] does the source give for `O=C(O)c1cccnc1C(=O)O` [QUINOLINIC ACID] here?
**A.** 335000

**Q.** What about the Activity [58] of the same compound?
**A.** 15.4 ng/mL

**Q.** And the Activity [59]?
**A.** 11.3 ng/mL

**Q.** And the Activity [27]?
**A.** 263 pg/mL

**Q.** What about the Activity [60] of the same compound?
**A.** 8.36 ng/mL

**Q.** What about the Activity [31] of the same compound?
**A.** 312 pg/mL

**Q.** And the Activity [61]?
**A.** 4.19 ng/mL
